From article PMC6863536, “Natural compounds as angiogenic enzyme thymidine phosphorylase inhibitors: In vitro biochemical inhibition, mechanistic, and in silico modeling studies” (PLoS ONE, 2019) come the findings set out here.

The target in series [1] is T1, thymidine phosphorylase (TP) enzyme (Escherichia coli, UniProt P07650).
T1 construct: purchased Sigma Aldrich, USA
In words: Mechanistic (kinetic) studies on TP, Lineweaver-Burk plot and secondary re-plot. It counts as biochemical, E. coli. The conditions noted are these: for Type of inhibition: Lineweaver-Burk plot, substrate thymidine. As for the experimental part: In mechanistic studies, TP enzyme was incubated with different concentrations of inhibitors at 30°C for 10 min. Reaction was then initiated by adding four different concentrations of substrate, i.e. thymidine (0.1875–1.5 mM). Enzyme activity was measured under steady state conditions by measuring changes in absorbance for another 10 min at 30°C at 290 nm, on microtiter plate reader (Spectramax, M5, Molecular Devices, CA, USA). Every experiment is performed in triplicate.
Lineweaver-Burk plot was used to determine the type of inhibition, where the reciprocal of rate of the reaction were plotted against the reciprocal of substrate concentration. Dissociation constant (Ki) were determined by secondary re-plot of Lineweaver-Burk plots. Kinetic data was analysed by GraFit 7 data analysis software (purchased from Erithacus Software Limited, UK).

Series [2] can be described thus: In vitro MTT cytotoxicity assay. It counts as cell-based, mouse. The following applies: mouse, 3T3 mouse fibroblast cells, 3T3 cells, 48 hrs incubation, read-out: Cytotoxicity IC50 (μM ± SD). As to the method:
(§1) The reduction of MTT can only occur in metabolically active cell, so the enzyme activity is actually a measure of cell viability.
(§2) Briefly, the mouse fibroblast cells (3T3) were cultured in DMEM media containing 5% FBS, 100 IU/ mL penicillin, and 100 μg/ mL streptomycin. Cell suspension (5×10^4cells/ mL) was dispensed in flat-bottomed 96-well plates, and incubated at 37°C and with 5% CO2. After the overnight incubation, old media was aspirated and fresh media containing different concentrations of compounds (prepared in DMSO) were added, and plate was further incubated for 48 hrs. After that, MTT dye (0.5 mg/ mL) was added into each well, and the plate was further incubated for 4 hrs. Following this, DMSO (100 μL) was added into each well, and the level of MTT reduction to formazan with in the cells was calculated by taking the absorbance at 540 nm using a micro plate reader (Spectra Max plus, Molecular Devices, CA, USA).
(§3) Cellular viability was measured for 10 min, at 570 nm on microtiter plate reader. Changes in absorbance upon addition of test compounds were analyzed with the SoftMax Pro 4.8 software which was purchased from Molecular Devices, CA, USA. Percent inhibition was calculated using the formula mentioned earlier.
(§4) It was calculated by measuring the effects of different concentrations of inhibitors on the growth of cells. EZ-Fit, Enzyme kinetics software was used to deduce the IC50 values.

Series [3] deals with T2, thymidine phosphorylase (TP), recombinant E. coli TP enzyme (Escherichia coli, UniProt P07650).
T2 construct: purchased Sigma Aldrich, USA
T2 sequence (P07650 whole entry): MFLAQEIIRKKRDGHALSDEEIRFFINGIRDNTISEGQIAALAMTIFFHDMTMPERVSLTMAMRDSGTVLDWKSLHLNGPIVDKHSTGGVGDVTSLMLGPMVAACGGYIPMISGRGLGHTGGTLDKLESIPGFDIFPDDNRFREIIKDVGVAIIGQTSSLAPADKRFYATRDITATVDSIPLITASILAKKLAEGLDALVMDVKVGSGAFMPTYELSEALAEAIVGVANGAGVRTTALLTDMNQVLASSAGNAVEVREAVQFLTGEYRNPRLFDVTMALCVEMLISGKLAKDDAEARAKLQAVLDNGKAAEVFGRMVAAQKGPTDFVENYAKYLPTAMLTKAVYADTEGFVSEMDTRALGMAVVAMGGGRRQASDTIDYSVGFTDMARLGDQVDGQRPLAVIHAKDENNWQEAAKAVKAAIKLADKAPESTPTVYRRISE
Description: Thymidine phosphorylase inhibition assay (spectrophotometric). It counts as biochemical. The following applies: 1.5 mM thymidine, 30°C, pH 7.0, 290 nm, test compounds screened at 500 μM. As to the method: In the current study, we have used commercially available recombinant E. coli TP enzyme, as human TP is not easily accessible.
Thymidine phosphorylase inhibition assay was carried out spectrophotometrically. Briefly, 0.058 U of TP enzyme (E.C. No. 2.4.2.4, E. coli) was incubated with 500 μM of test compounds at 30°C for 10 minutes. After that 1.5 mM of substrate thymidine was added to 96-well plate, and changes in absorbance were monitored for 10 minutes at 290 nm in microtiter plate reader (Spectramax, M5, Molecular Devices, CA, USA). Enzyme and substrate solution were prepared in 50 mM phosphate buffer of pH 7.0, while test compounds were prepared in DMSO (final concentration 4.5%).
Enzyme activity was measured under steady-state conditions by observing changes in absorbance for 10 min (at 290 nm) on microtiter plate reader (Spectra Max M5, Molecular Devices, CA, USA). Changes in absorbance upon addition of test compounds were analyzed with the SoftMax Pro 4.8 software which was purchased from Molecular Devices, CA, USA. To calculate the percent inhibition, following formula was used: % Inhibition = 100-Absorbance of test compound/Absorbance of control×100
Inhibitory potential of test compounds is represented in Figs 1–4 as IC50 value (Inhibitory concentration). […] It was calculated by measuring the effects of different concentrations of inhibitors on the degradation of thymidine. EZ-Fit, Enzyme kinetics software (purchased from Perrella Scientific, Inc., USA) was used to deduce the IC50 values.

Series [4] deals with mouse fibroblast (3T3) cell line. In words: In vitro MTT cytotoxicity assay. It is filed as cell-based. The conditions noted are these: 3T3 cells, 48 hrs incubation. As to the method: as §1, §2, §3, §4
For orientation: Formazan colour is commonly taken as a measure of viable cells.

Where [5] appears, read: thymidine 0.1875–1.5 mM, 30°C, secondary re-plot of Lineweaver-Burk plot, read-out: Ki ± SEM (dissociation constant).
The mark [6] stands for this setting: read-out: TP Inhibition IC50 (μM ± SEM).

Each structure is given as a SMILES string. Entries after “also recorded” stand apart in the source; their conditions may differ. Read-outs that look alike come from different tables or passages of the source.

T1 sequence (P07650 whole entry): as above

Turning to `O=c1[nH]c(=O)c2cc[nH]c2[nH]1` [7-Deazaxanthine, 7-deazaxanthine, reference compound], the Type of inhibition result in series [1] is listed as “Non-competitive”.
Turning to `O=c1cc(-c2ccccc2)oc2ccccc12` [Compound 1], in series [2], the IC50 (as a rule, the concentration at which inhibition is half-maximal) at 48 h stood at 29.1 ± 0.61 µM. For the same compound, in series [1], the Type of inhibition result is “Uncompetitive”. In addition, in series [1] (setting [5]), the Ki (as a rule, a measure of affinity in units of concentration, obtained from inhibition or displacement) is 225 ± 0.002 µM. In series [3] (setting [6]), the IC50 stood at 195.1 ± 1.1 µM.
Consider `COc1cc(O)c2c(=O)cc(-c3c(OC)ccc(O)c3O)oc2c1` [Compound 2], for which, in series [3] (setting [6]), the IC50 came to 113 µM.
On to `O=c1cc(-c2ccc(O)cc2)oc2cc(O)cc(O)c12` [Compound 3], for which the “TP Inhibition IC50 (μM ± SEM)” value in series [3] was “inactive”.
In the case of `O=c1cc(-c2ccccc2)oc2cc(O)cc(O)c12` [Compound 4], the “TP Inhibition IC50 (μM ± SEM)” value in series [3] was “inactive”.
As for `COc1c(O)cc2oc(-c3ccc(O)c(O)c3)c(O)c(=O)c2c1O` [Compound 5], the Type of inhibition result in series [1] is recorded as “Mixed”. In series [1] (setting [5]), the Ki came out at 341.1 ± 0.01 µM. Moreover, the IC50 in series [3] (setting [6]) was 76.8 ± 1.1 µM.
Taken in the same sequence, the figures for `O=c1ccc2ccccc2o1` [Compound 6, coumarin] were “Uncompetitive”, 171 ± 0.001 µM and 420 ± 6.15 µM.
As to `COc1c2ccoc2cc2oc(=O)ccc12` [Compound 7], the IC50 in series [3] (setting [6]) worked out at 344.2 ± 1.2 µM.
For the compound `CC1(C)C=Cc2c(ccc3ccc(=O)oc23)O1` [Compound 8], the Type of inhibition entry in series [1] is “Uncompetitive”. Besides, in series [1] (setting [5]), the Ki is 162 ± 0.001 µM. The IC50 in series [3] (setting [6]) worked out at 181.1 ± 0.6 µM.
`COc1cc2ccc(=O)oc2cc1O` [Compound 9]: the Type of inhibition entry in series [1] is given as “Non-competitive”. The Ki in series [1] (setting [5]) was determined as 419 ± 0.001 µM. Besides, in series [3] (setting [6]), the IC50 was found to be 193.4 ± 1 µM.
In the case of `COc1cc2ccc(=O)oc2cc1O[C@@H]1O[C@H](CO[C@@H]2OC[C@](O)(CO)[C@H]2O)[C@@H](O)[C@H](O)[C@H]1O` [Compound 10], in series [1], the Ki is 145 ± 0.001 µM and the Type of inhibition entry was “Uncompetitive”. For the same compound, the half-maximal inhibitory concentration (IC50) in series [3] (TP Inhibition IC50 (μM ± SEM)) is 295.2 ± 2 µM.
Turning to `COc1cc2c(cc1OC)-c1c(OC)c(OC)cc3c1[C@H](C2)N(C)CC3` [Compound 11, Glaucine HBr], in series [1], the Type of inhibition entry is recorded as “Uncompetitive”. The Ki in series [1] (setting [5]) stood at 180 ± 0.01 µM. Besides, in series [3] (setting [6]), the IC50 turned out to be 238.5 ± 2.1 µM.
For the compound `O=C(O)/C=C/c1ccccc1` [Compound 15, Cinnamic acid], the IC50 in series [3] (TP Inhibition IC50 (μM ± SEM)) stood at 349.7 ± 1.4 µM.
As to `O=C(O)c1cc(O)c(O)c(O)c1` [Compound 16, Gallic acid], the “TP Inhibition IC50 (μM ± SEM)” value in series [3] was “inactive”.
The same measure, in the same setting: as for `COc1cc(C(=O)O)ccc1O` [Compound 17, Vanillic acid], the entry is “inactive”.
As to `C[C@H](Cc1ccc(O)c(O)c1)[C@@H](C)Cc1ccc(O)c(O)c1` [Compound 18, Masoprocol], in series [4], the “Cytotoxicity IC50 (μM ± SD)” value is “non-toxic; also recorded: non-cytotoxic”. For the same compound, in series [1], the Type of inhibition entry is recorded as “competitive inhibitor”. Also, the Ki in series [1] (setting [5]) is 25.6 ± 0.008 µM. Moreover, the IC50 in series [3] (setting [6]) amounted to 44 ± 0.5 µM.
As for `C[C@@H]1C[C@@H]([C@H](O)CC2CC(=O)NC(=O)C2)C(=O)[C@@H](C)C1` [Cyclohexamide, cycloheximide, reference compound], in series [4] (read-out: Cytotoxicity IC50 (μM ± SD)), the IC50 was determined as 0.2 ± 0.1 µM.
For the compound `N=C1CCCN1Cc1[nH]c(=O)[nH]c(=O)c1Cl` [Tipiracil, tipiracil, reference compound], in series [3] (setting [6]), the IC50 was determined as 0.014 ± 0.002 µM.
